From the NIST ThermoML archive (doi:10.1016/j.jct.2015.09.022)
± gives the expanded uncertainty stated by the source.

Assay: xn = mol fraction of the nth substance listed
Conditions: 100.7 kPa, Liquid; for viscosity: Falling or rolling sphere viscometry; for speed of sound: Frequency=3 MHz, Sing-around technique in a fixed-path interferometer; for mass density: Vibrating tube method

CCCC[n+]1ccn(C)c1.O=S(=O)([N-]S(=O)(=O)C(F)(F)F)C(F)(F)F + CCCCOC(C)=O
Conditions | mass density, 298.15 K [kg/m3] | mass density, 303.15 K [kg/m3] | mass density, 308.15 K [kg/m3] | speed of sound, 298.15 K [m/s] | speed of sound, 303.15 K [m/s] | speed of sound, 308.15 K [m/s] | viscosity, 298.15 K [mPa·s] | viscosity, 303.15 K [mPa·s] | viscosity, 308.15 K [mPa·s]
x1 = 0.0252 | – | – | – | 1187.2 ± 1.4 | 1167.5 ± 1.4 | 1147.2 ± 1.4 | – | – | –
x1 = 0.0521 | – | – | – | 1185.1 ± 1.4 | 1165.2 ± 1.4 | 1146.7 ± 1.4 | – | – | –
x1 = 0.0754 | – | – | – | 1183.4 ± 1.4 | 1164.2 ± 1.4 | 1146.3 ± 1.4 | – | – | –
x1 = 0.11 | 1002.7 ± 0.27 | 997.7 ± 0.28 | 992.65 ± 0.28 | 1182 ± 1.4 | 1163.8 ± 1.4 | 1145.8 ± 1.4 | 1.65 ± 0.17 | 1.32 ± 0.13 | 1.08 ± 0.11
x1 = 0.2089 | 1091.17 ± 0.27 | 1086.13 ± 0.28 | 1081.08 ± 0.28 | 1182.3 ± 1.4 | 1165.8 ± 1.4 | 1149.4 ± 1.4 | 3.16 ± 0.32 | 2.47 ± 0.25 | 2 ± 0.2
x1 = 0.2993 | 1157.05 ± 0.29 | 1152.05 ± 0.3 | 1147.06 ± 0.3 | 1184.9 ± 1.4 | 1169.6 ± 1.4 | 1154.5 ± 1.4 | 5.48 ± 0.55 | 4.19 ± 0.42 | 3.3 ± 0.33
x1 = 0.393 | 1214.08 ± 0.33 | 1209.12 ± 0.34 | 1204.12 ± 0.34 | 1189 ± 1.4 | 1174.7 ± 1.4 | 1160.6 ± 1.4 | 8.7 ± 0.87 | 6.7 ± 0.67 | 5.35 ± 0.54
x1 = 0.4847 | 1261.35 ± 0.37 | 1256.55 ± 0.38 | 1251.44 ± 0.38 | 1194 ± 1.4 | 1180.5 ± 1.4 | 1167.2 ± 1.4 | 13 ± 1.3 | 10 ± 1 | 7.85 ± 0.79
x1 = 0.5739 | 1300.9 ± 0.42 | 1296 ± 0.42 | 1291.12 ± 0.41 | 1199.2 ± 1.5 | 1186.3 ± 1.5 | 1173.6 ± 1.5 | 18.01 ± 1.8 | 13.81 ± 1.4 | 10.8 ± 1.1
x1 = 0.687 | 1344.53 ± 0.47 | 1339.68 ± 0.47 | 1335.03 ± 0.47 | 1206.6 ± 1.5 | 1194.3 ± 1.5 | 1182.2 ± 1.5 | 25.24 ± 2.5 | 19.35 ± 1.9 | 15.26 ± 1.5
x1 = 0.7791 | 1375.41 ± 0.51 | 1370.57 ± 0.51 | 1365.95 ± 0.51 | 1212.7 ± 1.5 | 1201.8 ± 1.5 | 1189.1 ± 1.5 | 31.73 ± 3.2 | 25.04 ± 2.5 | 20 ± 2
x1 = 0.9056 | 1412.56 ± 0.57 | 1407.82 ± 0.57 | 1403.1 ± 0.57 | 1221.6 ± 1.5 | 1211.6 ± 1.5 | 1199.2 ± 1.5 | 41.39 ± 4.2 | 33.3 ± 3.4 | 27.56 ± 2.8
x1 = 1 | 1436.82 ± 0.62 | 1431.98 ± 0.61 | 1427.16 ± 0.61 | 1227.8 ± 1.5 | 1217.5 ± 1.5 | 1205.2 ± 1.5 | 50.04 ± 5 | 40.72 ± 4.1 | 33.73 ± 3.4
